Experimental data as given in US20090082337A1, “Compositions Comprising Quinolone and Methods for Treating or Controlling Infections” (priority 2007, published 2009).
Converted amounts (≈) assume the structure as drawn.

The molecules below were run on Ofloxacin-resistant Enterobacteriaceae (assay: organism not typed).
Assay type: cell-based
N[C@@H]1CCCCN(c2c(F)cc3c(=O)c(C(=O)O)cn(C4CC4)c3c2Cl)C1 [Compound Having Formula IV] was tested, and the MIC90 was 16 µg/mL.
In the case of CCn1cc(C(=O)O)c(=O)c2cc(F)c(N3CCNCC3)cc21 [Norfloxacin], the MIC90 is reported as 128 µg/mL (≈ 401 µM).
Work on CC1COc2c(N3CCN(C)CC3)c(F)cc3c(=O)c(C(=O)O)cn1c23 (stereo not drawn) [Ofloxacin, ofloxacin] yielded an MIC90 of 64 µg/mL (≈ 177 µM).
